Assays:
[1] = Tissue distribution study; type: in vivo, mice; details: mouse, 20 mg/kg
Experimental: Agilent 1290 UHPLC system and 6420 series Triple‐Quadrupole Tandem Mass Spectrometer (Agilent Corporation) maintained at 35°C with a ZORBAX Eclipse Plus C18 column (1.8 μm, 2.1 × 50 mm). The mobile phase was a gradient elution program consisting of solvent A with solvent B at a flow rate of 0.4 ml/min. Mobile phase A was 0.1% formic acid in water (v/v), and mobile phase B was acetonitrile. The optimal gradient elution program was as follows: 0–0.5 min, linear from 80% to 5% A; 0.5–1.5 min, 5% A; 1.5–1.6 min, linear from 5% to 80% A. The post‐time was 1.3 min for equilibration of the column and the total runtime was 1.8 min. The mass spectrometer was acquired in an ESI‐positive mode with multiple reaction monitoring (MRM). Instrument control and data acquisition were performed on the MassHunter Agilent Software (version B.07.00).
The desolation gas (nitrogen) flow was set to 10 L/h: the capillary voltage: 4000 V; nebulizing gas and drying gas (both nitrogen): 45 psi and 350°C, respectively. The MRM mode with m/z 282.2→76.9 for C1632 and m/z 282.1→194.0 for IS was used for quantitative analysis.
Twenty‐four mice were randomly divided into four groups (six mice for each group, one group for each time point) and received 20 mg/kg […] of C1632 by oral administration. The mice were euthanized by decapitation at 0 (blank group), 0.25, 2 and 6 h after C1632 was given. Tissues were collected and washed with normal saline, then homogenized and subjected to sample preparation. Subsequently, the concentration of C1632 was determined by UHPLC‐MS/MS.

[2] = test system: A549 cells; assay: Scratch-wound healing assay; type: cell-based, human; details: A549, 60 mg/L
Experimental: (§1) The cells scratch‐wound assay was performed as previous reported.[38] The cells were seeded in a 6‐well plate and then cultured in DMEM medium containing indicated concentration of C1632 or 0.01% DMSO for 5 days. A denuded area was created across the diameter of dish by a yellow tip as the cell density up to 95%. Then cells were maintained in a serum‐free medium throughout the test. Phase‐contrast images were taken at the indicate time by Nikon Ti microscope and analysed with Axiovision Rel.4.8 software.

[3] = test system: A549R cells; assay: Scratch-wound healing assay; type: cell-based, human; details: 60 mg/L, after 72 h, control 97%
Experimental: as §1

[4] = test system: A549 cells; assay: Edu staining assay; type: cell-based, human; details: A549, 15, 30 or 60 mg/L, 5 days, dose-dependent
Experimental: (§2) Edu staining assay was carried out according to Edu staining Kit (Beyotime). First, A549 or A549R cells were seeded in 6‐well plates and cultured in RPMI medium 1640 containing 10% FBS, then treated with C1632 (15, 30, or 60 mg/L) for 5 days. Subsequently, cells were incubated with Edu for 3 h, fixed with 4% paraformaldehyde for 15 min, and permeated with 0.3% Triton X‐100 for another 15 min. Then cells were incubated with the Click Reaction Mixture provided by Edu staining Kit for 30 min at room temperature in dark and then stained with DAPI. Finally, the stained cells were scanned and imaged under Nikon Ti microscope.

[5] = test system: A549R cells; assay: Edu staining assay; type: cell-based, human; details: A549R, 15, 30 or 60 mg/L, 5 days, dose-dependent
Experimental: as §2

level of C1632 in the brain [1]: remained low
tissues with the highest level of C1632 ([1]; 0.25 h, followed by kidney, heart and spleen): highest in the lung and liver
Tmax ([1]; tissues (major organs), homogenized, oral administration, sampled at 0.25, 2 and 6 h, read-out: time of peak concentration in major organs): 15 min
SMILES: CC(=O)N(C)c1cccc(-c2ccc3nnc(C)n3n2)c1 [C1632]
migration rate [2]: significant decrease
scratch covered by migrated cells [3]: 60%
DNA replication [4]: significant inhibition
DNA replication [5]: significant inhibition
